Legend:
Experiment in all cases: relative viability (nuclei count vs DMSO), 5 days (fraction); higher = more cells survive
[1] = compound: COC1=CC=C(C=C1)COC2=C(C=C(C=C2)CC3=CN=C(N=C3N)N)OC [GW-2580] + CC(=O)Nc1cccc(-n2c(=O)n(C3CC3)c(=O)c3c(Nc4ccc(I)cc4F)n(C)c(=O)c(C)c32)c1 [Trametinib] (partner 0.02 µM)
Outline: (§1)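 Each reported value is a median over duplicate plates. It expresses relative viability: treated-well nuclei count divided by vehicle-well nuclei count. Lung cancer cell lines in 1536-well plates were dosed by pin tool a day after seeding, alone with one drug or with a fixed anchor-drug dose plus five library-drug doses (not always all listed) in √10 steps, and nuclei were counted after 5 days.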

[2] = compound: COC1=CC=C(C=C1)COC2=C(C=C(C=C2)CC3=CN=C(N=C3N)N)OC [GW-2580] + CS(=O)(=O)N1CCN(Cc2cc3nc(-c4cccc5[nH]ncc45)nc(N4CCOCC4)c3s2)CC1 [Pictilisib] (partner 1 µM)
Outline: as §1

[3] = compound: COC1=CC=C(C=C1)COC2=C(C=C(C=C2)CC3=CN=C(N=C3N)N)OC [GW-2580] + C[C@]1(O)C[C@@H](c2nc(-c3ccc4ccc(-c5ccccc5)nc4c3)c3c(N)nccn32)C1 [Linsitinib] (partner 1 µM)
Outline: as §1

[4] = compound: COC1=CC=C(C=C1)COC2=C(C=C(C=C2)CC3=CN=C(N=C3N)N)OC [GW-2580] + NC(=O)Nc1cc(-c2cccc(F)c2)sc1C(=O)N[C@H]1CCCNC1 [AZD7762] (partner 0.2 µM)
Outline: as §1

[5] = compound: Cc1cnc(Nc2ccc(OCCN3CCCC3)cc2)nc1Nc1cccc(S(=O)(=O)NC(C)(C)C)c1 [Fedratinib] + N=C(N)NC(=N)NCCc1ccccc1 [Phenformin] (partner 250 µM)
Outline: as §1

Cell Line: LU99A
- relative viability ([1]; first compound 0.08 µM): 0.668
- relative viability ([1]; first compound 0.8 µM): 0.646
- relative viability ([1]; first compound 2.53 µM): 0.499
- relative viability ([1]; first compound 8 µM): 0.462
- relative viability ([2]; first compound 0.08 µM): 0.274
- relative viability ([2]; first compound 0.8 µM): 0.322
- relative viability ([2]; first compound 2.53 µM): 0.251
- relative viability ([2]; first compound 8 µM): 0.294
- relative viability ([3]; first compound 0.08 µM): 0.749
- relative viability ([3]; first compound 0.8 µM): 0.57
- relative viability ([3]; first compound 2.53 µM): 0.427
- relative viability ([3]; first compound 8 µM): 0.517
- relative viability ([4]; first compound 0.08 µM): 0.509
- relative viability ([4]; first compound 0.8 µM): 0.315
- relative viability ([4]; first compound 2.53 µM): 0.267
- relative viability ([4]; first compound 8 µM): 0.281
- relative viability ([5]; first compound 0.1 µM): 0.864
- relative viability ([5]; first compound 0.3162 µM): 0.894
- relative viability ([5]; first compound 1 µM): 0.755

Cell Line: HCC-827
- relative viability ([1]; first compound 0.08 µM): 0.555
- relative viability ([1]; first compound 0.8 µM): 0.552
- relative viability ([1]; first compound 2.53 µM): 0.483
- relative viability ([1]; first compound 8 µM): 0.568
- relative viability ([2]; first compound 0.08 µM): 1.01
- relative viability ([2]; first compound 0.8 µM): 1.01
- relative viability ([2]; first compound 2.53 µM): 0.949
- relative viability ([2]; first compound 8 µM): 0.963
- relative viability ([3]; first compound 0.08 µM): 0.975
- relative viability ([3]; first compound 0.8 µM): 1.03
- relative viability ([3]; first compound 2.53 µM): 1.01
- relative viability ([3]; first compound 8 µM): 0.961
- relative viability ([4]; first compound 0.08 µM): 0.207
- relative viability ([4]; first compound 0.8 µM): 0.244
- relative viability ([4]; first compound 2.53 µM): 0.201
- relative viability ([4]; first compound 8 µM): 0.214
- relative viability ([5]; first compound 0.1 µM): 0.388
- relative viability ([5]; first compound 0.3162 µM): 0.42
- relative viability ([5]; first compound 1 µM): 0.464

Cell Line: LK-2
- relative viability ([1]; first compound 0.08 µM): 0.918
- relative viability ([1]; first compound 0.8 µM): 0.933
- relative viability ([1]; first compound 2.53 µM): 0.686
- relative viability ([1]; first compound 8 µM): 0.904
- relative viability ([2]; first compound 0.08 µM): 0.476
- relative viability ([2]; first compound 0.8 µM): 0.569
- relative viability ([2]; first compound 2.53 µM): 0.428
- relative viability ([2]; first compound 8 µM): 0.552
- relative viability ([3]; first compound 0.08 µM): 0.558
- relative viability ([3]; first compound 0.8 µM): 0.573
- relative viability ([3]; first compound 2.53 µM): 0.23
- relative viability ([3]; first compound 8 µM): 0.534
- relative viability ([4]; first compound 0.08 µM): 0.44
- relative viability ([4]; first compound 0.8 µM): 0.681
- relative viability ([4]; first compound 2.53 µM): 0.269
- relative viability ([4]; first compound 8 µM): 0.284
- relative viability ([5]; first compound 0.1 µM): 0.293
- relative viability ([5]; first compound 0.3162 µM): 0.452
- relative viability ([5]; first compound 1 µM): 0.201

Cell Line: HCC-366
- relative viability ([1]; first compound 0.08 µM): 0.344
- relative viability ([1]; first compound 0.8 µM): 0.401
- relative viability ([1]; first compound 2.53 µM): 0.295
- relative viability ([1]; first compound 8 µM): 0.412
- relative viability ([2]; first compound 0.08 µM): 0.148
- relative viability ([2]; first compound 0.8 µM): 0.199
- relative viability ([2]; first compound 2.53 µM): 0.141
- relative viability ([2]; first compound 8 µM): 0.137
- relative viability ([3]; first compound 0.08 µM): 0.51
- relative viability ([3]; first compound 0.8 µM): 0.678
- relative viability ([3]; first compound 2.53 µM): 0.496
- relative viability ([3]; first compound 8 µM): 0.882
- relative viability ([4]; first compound 0.08 µM): 0.359
- relative viability ([4]; first compound 0.8 µM): 0.317
- relative viability ([4]; first compound 2.53 µM): 0.27
- relative viability ([4]; first compound 8 µM): 0.142
- relative viability ([5]; first compound 0.1 µM): 0.482
- relative viability ([5]; first compound 0.3162 µM): 0.673
- relative viability ([5]; first compound 1 µM): 0.642
